Results published in US7589099B2, “7-t-butoxyiminomethylcamptothecin conjugated in position 20 with integrin antagonists” (priority 2004, dated 2009).
Read-outs that look alike come from different tables or passages of the source.

Legend:
[1] = tested on: NCI-H460 non-small cell lung carcinoma; experiment: Cytotoxicity, sulphorodamine B test, NCI-H460; assay type: cell-based, human; details: 2 h of treatment (followed by 72 h of recovery), read-out: NCI-H460 IC50 ± SD
Method: (§1) To evaluate the effect of the compound on survival cells, the sulphorodamine B test was used. To test the effects of the compounds on cell growth, PC3 human prostate carcinoma, A498 human renal carcinoma, A2780 human ovarian carcinoma cells and NCI-H460 non-small cell lung carcinoma were used. A2780, NCI-H460 and PC3 tumor cells were grown RPMI 1640 containing 10% fetal bovine serum (GIBCO), whereas A498 tumor cells were grown in EMEM containing 10% fetal bovine serum (GIBCO).
Tumor cells were seeded in 96-well tissue culture plates (Corning) at approximately 10% confluence and were allowed to attach and recover for at least 24 h. […] The plates were incubated for 72 h at 37° C. or 2 h followed by 72 h of recovery. At the end of the treatment, the plates were washed by removal of the surnatant and addition of PBS 3 times. 200 μl PBS and 50 μl of cold 80% TCA were added. The plates were incubated on ice for at least 1 h. […]
(§2) Then 200 μl Tris 10 mM were added, the plates were kept under stirring for 20 min. The survival cell was determined as optical density by a Multiskan spectrofluorimeter at 540 nm. The amount of cells killed was calculated as the percentage decrease in sulphorodamine B binding compared with control cultures.
(§3) The IC50 values were calculated with the “ALLFIT” program.

[2] = tested on: A2780 human ovarian carcinoma cells; experiment: cells; assay type: cell-based
Method: as §1
(§4) Tumor cells were seeded in 96-well tissue culture plates (Corning) at approximately 10% confluence and were allowed to attach and recover for at least 24 h. […] The plates were incubated for 72 h at 37° C. or 2 h followed by 72 h of recovery. At the end of the treatment, the plates were washed by removal of the surnatant and addition of PBS 3 times. 200 μl PBS and 50 μl of cold 80% TCA were added. The plates were incubated on ice for at least 1 h. TCA was removed, the plates were washed 3 times for immersion in distilled-water and dried on paper and at 40° C. for 5 min.
(§5) Then 200 μl of 0.4% sulphorodamine B in 1% acetic acid were added. The plates were incubated at room temperature for other 30 min. Sulphorodamine B was removed, the plates were washed for immersion in 1% acetic acid for 3 times, then they were dried on paper and at 40° C. for 5 min.
as §2, §3

[3] = tested on: A498 human renal carcinoma; experiment: cells; assay type: cell-based
Method: as §1, §4, §5, §2, §3

[4] = tested on: PC3 human prostate carcinoma; experiment: cells; assay type: cell-based
Method: as §1, §4, §5, §2, §3

[5] = target: T1, purified αvβ3 receptor (Homo sapiens, UniProt P05106+P06756); experiment: Binding to integrin αvβ3 receptors ([125I]echistatin competition)
T1 construct: purchased Chemicon CC1020
Method: (§6) An aliquot of 100 μl was added to 96-well plates and incubated overnight at +4° C. Plates were washed once with buffer (50 mM Tris, pH 7,4, 100 mM NaCl, 2 mM CaCl2, 1 mM MgCl2, 1 mM MnCl2, 1% bovine serum albumin) and then incubated for another 2 hours at room temperature. Plates were washed twice with the same buffer and incubated for 3 hours at room temperature with the radioactive ligand [^125I]echistatin (Amersham Pharmacia Biotech) 0.05 nM in the presence of competition ligands. At the end of incubation, the wells were washed and the radioactivity determined using a gamma counter (Packard). Non-specific binding of the ligand was determined in the presence of excess cold echistatin (1 μM).
(§7) The IC50 parameter was elaborated using “ALLFIT” software.

[6] = target: T2, purified αvβ5 receptor (Homo sapiens, UniProt P06756+P18084); experiment: Binding to integrin αvβ5 receptors ([125I]echistatin competition)
T2 construct: purchased Chemicon CC1020
Method: as §6, with “7.4,” for “7,4,”, “0.15” for “0.05”, “Non-specific ligand” for “Non-specific”, “binding” for “binding of the ligand”
as §7

**Q.** For 20-O-Val-gimatecan [ST2678], which IC50 [1] is on record?
**A.** 25 ± 2 nM

**Q.** What does the source list for `CC[C@@]1(OC(=O)[C@@H](NC(=O)CCC(=O)NCc2ccc(C[C@@H]3NC(=O)C(Cc4ccccc4)NC(=O)[C@H](CC(=O)O)NC(=O)CNC(=O)[C@H](CCCNC(=N)N)NC3=O)cc2)C(C)C)C(=O)OCc2c1cc1n(c2=O)Cc2c-1nc1ccccc1c2/C=N/OC(C)(C)C` (stereo partly drawn) [ST2670]?
**A.** IC50 ([2]; 72 h): 400 nM; IC50 ([3]; 72 h): 1600 ± 300 nM; IC50 ([4]; 72 h): 9600 ± 600 nM; IC50 [5]: 47.7 ± 0.9 nM; IC50 [6]: 74 ± 0.8 nM

**Q.** Which IC50 ([4]; 72 h) does the source give for `CC[C@@]1(OC(=O)[C@@H](NC(=O)[C@@H](N)CC(=O)NCc2ccc(C[C@@H]3NC(=O)C(Cc4ccccc4)NC(=O)[C@H](CC(=O)O)NC(=O)CNC(=O)[C@H](CCCNC(=N)N)NC3=O)cc2)C(C)C)C(=O)OCc2c1cc1n(c2=O)Cc2c-1nc1ccccc1c2/C=N/OC(C)(C)C` (stereo partly drawn) [ST2671] here?
**A.** 350 ± 80 nM

**Q.** And the “PC3 IC50 ± SD” value ([4]; 72 h of treatment)?
**A.** potent cytotoxicity

**Q.** And the IC50 [5]?
**A.** 22.8 ± 1.2 nM

**Q.** And the IC50 [6]?
**A.** 54.2 ± 0.5 nM

**Q.** With `CC[C@@]1(OC(=O)[C@@H](NC(=O)[C@H](CC(=O)O)NC(=O)OC(C)(C)C)C(C)C)C(=O)OCc2c1cc1n(c2=O)Cc2c-1nc1ccccc1c2/C=N/OC(C)(C)C` [ST2676, 20-O-Val-Asp-gimatecan] as the compound, how does the IC50 ([1]; Homo sapiens, NCI-H460) read?
**A.** 170 ± 20 nM

**Q.** And the IC50 ([2]; Homo sapiens, A2780, 72 h of treatment, read-out: A2780 IC50 ± SD)?
**A.** < 0.97 nM

**Q.** And the IC50 ([3]; Homo sapiens, A498, 72 h of treatment, read-out: A498 IC50 ± SD)?
**A.** 47 ± 5 nM

**Q.** And the IC50 ([4]; Homo sapiens, 72 h of treatment, read-out: PC3 IC50 ± SD)?
**A.** 38 ± 4 nM

**Q.** With `CN1C(=O)[C@@H](Cc2ccccc2)NC(=O)[C@H](CC(=O)O)NC(=O)CNC(=O)[C@H](CCCNC(=N)N)NC(=O)[C@@H]1Cc1ccc(CN)cc1` [ST2700] as the compound, how does the IC50 ([6]; RGD peptides, [125I]echistatin 0.15 nM, read-out: αvβ5 IC50 ± SD) read?
**A.** 0.9 ± 0.005 nM
